Data on five molecules can be found in patent publication US10412960B2, “Microparticles and nanoparticles made up of hydrophobized polysaccharides and an alpha-cyclodextrine” (priority 2012, dated 2019).

Data set [1] is described as follows: Encapsulation of active ingredients in the particles. It counts as physicochemical. As for the experimental part:
The protocol adopted for encapsulating the hydrophilic active ingredients is to dissolve the active ingredient in water at an initial concentration as indicated in Table 5 and then adding the amphiphilic polysaccharide and the α-cyclodextrin. The mixture is magnetically stirred for 3 days. After this mixing for 3 days, the concentration of the active ingredient that has not been encapsulated is determined in the supernatant of the preparation. The supernatant is separated either by simple sedimentation or by centrifugation of the microparticles, or after ultracentrifugation in the case of the nanoparticles.
The protocol adopted for encapsulating the hydrophobic active ingredients is to dissolve the active ingredient in an ethanol/water mixture at an initial concentration as shown in Table 26 and then add the amphiphilic polysaccharide and the α-cyclodextrin. The mixture is maintained under magnetic stirring for 3 days. After mixing for 3 days, the concentration of the active ingredient that has not been encapsulated is determined in the supernatant of the preparation. The supernatant is separated either by simple sedimentation or by centrifugation of the microparticles, or after ultracentrifugation in the case of the nanoparticles.

For data set [2], the system named is bacterial adhesion. The conditions noted are these: heparin coating of abiotic surfaces; cited from earlier work.
The subject of data set [3] is Candida albicans. The conditions noted are these: heparin coating of abiotic surfaces; cited from earlier work.
Setting [4] is: polysaccharide MC11, initial concentration 2.34 g/L, water.
The mark [5] stands for this setting: polysaccharide MC8, initial concentration 194 g/L, water.
Where [6] appears, read: polysaccharide MC9, initial concentration 2.31 g/L, water.
The mark [7] stands for this setting: polysaccharide MC6, initial concentration 21.7 g/L, water.
Where [8] appears, read: polysaccharide MC8, initial concentration 21.7 g/L, water.
Where [9] appears, read: polysaccharide MC9, initial concentration 2.33 g/L, water.
Setting [10] is: polysaccharide MC6, ethanol/water 40/60 % v/v, initial concentration 3.5 g/L.

As to `CC(=O)Nc1ccc(O)cc1` [Paracetamol], in data set [1] (setting [4]), the Concentration encapsulated was 780 µg/mL and the Encapsulation yield was 33.33%.
As for `Cc1ncc(CO)c(CO)c1O.Cl` [Vitamin B6], the Concentration encapsulated in data set [1] (setting [5]) is 104650 µg/mL; in data set [1] (setting [6]) it was 1520 µg/mL. Also, the Encapsulation yield in data set [1] (setting [5]) stood at 53.94%; in data set [1] (setting [6]) it was 65.82%.
As for `Cn1c(=O)c2c(ncn2C)n(C)c1=O` [Caffeine], the Concentration encapsulated in data set [1] (setting [7]) was 3590 µg/mL; in data set [1] (setting [8]), 3150 µg/mL; in data set [1] (setting [9]) it was 510 µg/mL. The Encapsulation yield in data set [1] (setting [7]) came to 16.55%; in data set [1] (setting [8]), 17.53%; in data set [1] (setting [9]), 22.23%.
Heparin: the “reduction of bacterial adhesion” value in data set [2] is recorded as 90%. Besides, in data set [3], the “reduction of adhesion of Candida albicans” value is reported as “approximately 50%”.
In data set [1] (setting [10]), `CC(C(=O)O)c1cccc(C(=O)c2ccccc2)c1` (stereo not shown) [Ketoprofen] returned an Encapsulated concentration of 1.09 g/L and an Encapsulation yield of 31.12%.
